Experimental data from patent US20250002475A1 (EPICS THERAPEUTICS, priority 2023, published 2025).
pIC50: −log10 of the molar value.

What was measured:
[1] = biological target: T1, recombinant METTL3/METTL14 complex (Homo sapiens, UniProt Q86U44); test: METTL3/14 Scintillation Proximity Assay (SPA), RNA methyltransferase activity; format: biochemical; settings: 5.31 nM METTL3/14 complex, 250 nM RNA substrate, 1 μM 3H-SAM, 90 min; for compounds marked * best of the two separated forms
T1 construct: purchased Active Motif 311970; host or cells: Sf9 cells

[2] = test system: Caov-3 cells; test: Caov-3 cellular viability assay (ATP-Lite, 72 h); format: cell-based; settings: Homo sapiens, ATP-Lite luminescence, % viability relative to DMSO
Description: Caov-3 cell line was purchased from ATCC (ATCC® HTB-75™). Cells were isolated from the ovary of a ovarian cancer patient.
Caov-3 cells are cultured in DMEM (ATCC 30-2002) containing 10% heat-inactivated and 0.22 μm filtered FBS (Gibco 10270-106). The cells are seeded at 2.5E+4cell/cm^2 within the recommended subcultivation ratio of 1:3 to 1:6, as stated on the certificate of analysis issues by the provider of the cells.
(§1) Cellular viability assay: Caov-3 cells were plated (50 μL) in 96-well cell culture microplates (PS, F-Bottom black, Cellstar, Greiner 655086) at final concentration of 10000 cells/well. The compounds of the invention were dissolved in DMSO, and a titration curve was generated at 1000× final concentration. Compounds were then diluted 500× in tissue culture medium (RPMI-1640, 10% FBS). Then 50 μl of test compound were added to Caov-3 cells in a final DMSO concentration of 0.1%, final volume 100 μl. A gas permeable sealing membrane was applied to the plate to prevent evaporation (Breathe-Easy sealing membrane, Sigma Z380059-1PK) and cells were incubated for 72 h at 37° C., 5% CO2, 80% RH. After 72 h of treatment, the plates were taken out of the incubator and left for a few minutes at room temperature. 100 μl of the reconstituted reagent ATP-Lite One Step (Perkin Elmer, 6016739) were added to each well. The plates were shaken for 2 min at 700 rpm and placed in the dark for 10 minutes at room temperature before measurement of luminescence intensity with Envision instrument. The raw data were expressed in RLU. Results were expressed in % of viability relative to DMSO control and an IC50 was calculated based on the concentration-response profile of individual compounds.

[3] = test system: Kasumi-1 cells; test: Kasumi-1 cellular viability assay (ATP-Lite, 72 h); format: cell-based; settings: Homo sapiens, ATP-Lite luminescence, % viability relative to DMSO
Description: Kasumi-1 cell line was purchased from ATCC (ATCC® CRL2724™). Cells were isolated from the peripheral blood of a child with acute myeloid leukemia (AML FAB M2) (in 2nd relapse after bone marrow transplantation) in 1989. Most cells are round. Kasumi-1 cells are observed to grow individually or in small clumps in suspension.
Kasumi-1 cells are cultured in RPMI-1640 (Gibco A10491-01) containing 10% heat-inactivated and 0.22 μm filtered FBS (Gibco 10270-106) at a density of 3E+5 and 3E+6 viable cell/mL following the certificate of analysis.
as §1, with “assay: Kasumi-1” for “assay: Caov-3”, “of 15000” for “of 10000”, “to Kasumi-1” for “to Caov-3”, “After 72h” for “After 72 h”, “6016739) was” for “6016739) were”

T1 sequence (Q86U44 whole entry): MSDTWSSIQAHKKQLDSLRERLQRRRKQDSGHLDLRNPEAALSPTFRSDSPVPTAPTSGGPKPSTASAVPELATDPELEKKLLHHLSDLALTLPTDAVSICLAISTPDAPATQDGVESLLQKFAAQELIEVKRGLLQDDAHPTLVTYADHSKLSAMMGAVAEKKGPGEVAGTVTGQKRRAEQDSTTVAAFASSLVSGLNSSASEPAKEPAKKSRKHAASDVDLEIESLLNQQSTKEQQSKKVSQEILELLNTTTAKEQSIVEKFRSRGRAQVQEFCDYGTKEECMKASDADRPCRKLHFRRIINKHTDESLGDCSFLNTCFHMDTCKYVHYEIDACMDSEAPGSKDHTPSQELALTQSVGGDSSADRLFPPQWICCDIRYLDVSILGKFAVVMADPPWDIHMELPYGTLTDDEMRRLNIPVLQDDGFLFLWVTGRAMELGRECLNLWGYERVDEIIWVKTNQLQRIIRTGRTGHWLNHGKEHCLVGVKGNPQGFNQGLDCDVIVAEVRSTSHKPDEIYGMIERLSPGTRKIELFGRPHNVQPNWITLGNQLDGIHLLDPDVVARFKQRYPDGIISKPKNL
T1 sequence (Q9HCE5 whole entry partner): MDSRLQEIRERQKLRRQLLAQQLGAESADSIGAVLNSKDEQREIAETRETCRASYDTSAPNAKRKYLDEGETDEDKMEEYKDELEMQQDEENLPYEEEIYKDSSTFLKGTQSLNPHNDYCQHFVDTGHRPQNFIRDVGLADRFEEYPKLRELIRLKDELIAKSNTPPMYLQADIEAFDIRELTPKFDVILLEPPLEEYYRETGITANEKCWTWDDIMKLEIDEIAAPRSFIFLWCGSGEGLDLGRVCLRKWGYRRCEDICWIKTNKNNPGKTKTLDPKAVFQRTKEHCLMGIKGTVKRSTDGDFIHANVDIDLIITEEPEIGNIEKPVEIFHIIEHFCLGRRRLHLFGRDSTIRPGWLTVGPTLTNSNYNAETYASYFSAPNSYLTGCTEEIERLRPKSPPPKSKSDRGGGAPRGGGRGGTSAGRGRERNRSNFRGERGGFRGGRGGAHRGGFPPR

Row | SMILES | pIC50 [1] | pIC50 [2] | pIC50 [3]
1 | COc1cncc(-c2ncc(C(C)c3ccc(N4CCC[C@@H](NCC5CCC5)C4)cn3)s2)c1 (single isomer, unassigned) [Compound 181] | ≥ 7.30 | 5.30 to 6.30 | 5.30 to 6.30
2 | COc1cncc(-c2ncc(Cn3ccc(N4CCC[C@@H](NCC5CCC5)C4)cc3=O)s2)c1 [Compound 097, (R)-4-(3-((cyclobutylmethyl)amino)piperidin-1-yl)-1-((2-(5-methoxypyridin-3-yl)thiazol-5-yl)methyl)pyridin-2(1H)-one] | ≥ 7.30 | ≥ 6.30 | ≥ 6.30
3 | CC(n1cc(-c2cc(N(C)C)cnn2)nn1)n1ccc(N2CCC[C@@H](NCC3CCC3)C2)cc1=O (single isomer, unassigned) [Compound 198] | ≥ 7.30 | 5.30 to 6.30 | 5.30 to 6.30
4 | CC(n1cc(-c2cncc(N(C)C)n2)nn1)n1ccc(N2CCC[C@@H](NCC3CC3)C2)cc1=O (single isomer, unassigned) [Compound 186] | ≥ 7.30 | ≥ 6.30 | ≥ 6.30
5 | CC(NC(=O)c1cc(=O)n2ccccc2n1)c1ccc(N2CCC[C@@H](NCC3CCC3)C2)cn1 (single isomer, unassigned) [Compound 058] | ≥ 7.30 | 5.30 to 6.30 | 5.30 to 6.30
6 | CC(c1ccc(N2CCC[C@@H](NCC3CCC3)C2)cn1)c1cnc(-c2cncc(N(C)C)c2)s1 (single isomer, unassigned) [Compound 169] | ≥ 7.30 | ≥ 6.30 | ≥ 6.30
7 | COc1cncc(-n2cc(Cn3ccc(N4CCC[C@@H](NCC5CCC5)C4)cc3=O)cn2)c1 [Compound 107, (R)-4-(3-((cyclobutylmethyl)amino)piperidin-1-yl)-1-((1-(5-methoxypyridin-3-yl)-1H-pyrazol-4-yl)methyl)pyridin-2(1H)-one] | ≥ 7.30 | ≥ 6.30 | ≥ 6.30
8 | COc1cc(-c2cn(Cc3ccc(N4CCC[C@@H](NCC5CCC5)C4)nn3)nn2)c2cncn2c1 [Compound 013, (R)-N-(cyclobutylmethyl)-1-(6-((4-(6-methoxyimidazo[1,5-a]pyridin-8-yl)-1H-1,2,3-triazol-1-yl)methyl)pyridazin-3-yl)piperidin-3-amine] | ≥ 7.30 | ≥ 6.30 | 5.30 to 6.30
9 | COc1cc(-c2cn(Cn3ccc(N4CCCC(NCC5CCC5)C4)cc3=O)nn2)c2cn[nH]c2c1 (stereo not drawn) [Compound 027, 4-(3-((cyclobutylmethyl)amino)piperidin-1-yl)-1-((4-(6-methoxy-1H-indazol-4-yl)-1H-1,2,3-triazol-1-yl)methyl)pyridin-2(1H)-one] | ≥ 7.30 | ≥ 6.30 | ≥ 6.30
10 | CC(c1ccc(N2CCC[C@@H](NCC3CCC3)C2)cn1)n1cc(-c2cncc(N(C)C)c2)nn1 (single isomer, unassigned) [Compound 143] | ≥ 7.30 | ≥ 6.30 | ≥ 6.30
11 | COc1cncc(-c2cn(C(C)n3ccc(N4CCC[C@@H](NCC5CCC5)C4)c(F)c3=O)nn2)c1 (stereo partly drawn) [Compound 126, 4-((R)-3-((cyclobutylmethyl)amino)piperidin-1-yl)-3-fluoro-1-(1-(4-(5-methoxypyridin-3-yl)-1H-1,2,3-triazol-1-yl)ethyl)pyridin-2(1H)-one] | ≥ 7.30 | 5.30 to 6.30 | < 5.30

Second part, led by results:

Row | pIC50 [1] | SMILES | pIC50 [2] | pIC50 [3]
12 | ≥ 7.30 | c1cc(C2(n3cnc(-c4cncc(N5CCCC5)n4)c3)COC2)ncc1N1CCC[C@@H](NCC2CC2)C1 [Compound 250, (R)-N-(cyclopropylmethyl)-1-(6-(3-(4-(6-(pyrrolidin-1-yl)pyrazin-2-yl)-1H-imidazol-1-yl)oxetan-3-yl)pyridin-3-yl)piperidin-3-amine] | ≥ 6.30 | ≥ 6.30
13 | ≥ 7.30 | O=C(Nc1cncc(N2CCCC2)n1)C1(c2ccc(N3CCC[C@@H](NCC4CCC4)C3)cc2)COC1 [Compound 281, (R)-3-(4-(3-((cyclobutylmethyl)amino)piperidin-1-yl)phenyl)-N-(6-(pyrrolidin-1-yl)pyrazin-2-yl)oxetane-3-carboxamide] | ≥ 6.30 | ≥ 6.30
14 | ≥ 7.30 | COc1cncc(-c2cn(C(C)n3ccc(N4CCC[C@@H](NCC5CC5)C4)cc3=O)nn2)c1 (single isomer, unassigned) [Compound 232] | ≥ 6.30 | ≥ 6.30
15 | ≥ 7.30 | CC(n1cc(-c2cncc(N3CC4(COC4)C3)n2)nn1)n1ccc(N2CCC[C@@H](NCC3CC3)C2)cc1=O (single isomer, unassigned) [Compound 237] | 5.30 to 6.30 | 5.30 to 6.30
16 | ≥ 7.30 | CC(n1cc(-c2cncc(OCC(F)(F)F)c2)nn1)n1ccc(N2CCC[C@@H](NCC3CCC3)C2)cc1=O (single isomer, unassigned) [Compound 200] | 5.30 to 6.30 | 5.30 to 6.30
17 | ≥ 7.30 | O=C(Nc1cc(=O)n2ccccc2n1)C1(c2ncc(N3CCC[C@@H](NCC4CCC4)C3)cc2F)COC1 [Compound 298, (R)-3-(5-(3-((cyclobutylmethyl)amino)piperidin-1-yl)-3-fluoropyridin-2-yl)-N-(4-oxo-4H-pyrido[1,2-a]pyrimidin-2-yl)oxetane-3-carboxamide] | 5.30 to 6.30 | 5.30 to 6.30
18 | ≥ 7.30 | CC(c1ccc(N2CCC[C@@H](NCC3(C)CC3)C2)cn1)n1cnc(-c2cncc(N3CCCC3)n2)c1 (single isomer, unassigned) [Compound 365] | ≥ 6.30 | ≥ 6.30
19 | ≥ 7.30 | CC(n1cc(-c2cncc(N3CCC(C)(C)C3)n2)nn1)n1ccc(N2CCC[C@@H](NCC3CC3)C2)cc1=O (single isomer, unassigned) [Compound 230] | ≥ 6.30 | ≥ 6.30
20 | ≥ 7.30 | c1cc(C2(n3cc(-c4cncc(N5CC6CC6C5)n4)nn3)COC2)ncc1N1CCC[C@@H](NCC2CCC2)C1 (stereo partly drawn) [Compound 291, (3R)-1-(6-(3-(4-(6-(3-azabicyclo[3.1.0]hexan-3-yl)pyrazin-2-yl)-1H-1,2,3-triazol-1-yl)oxetan-3-yl)pyridin-3-yl)-N-(cyclobutylmethyl)piperidin-3-amine] | ≥ 6.30 | ≥ 6.30
21 | ≥ 7.30 | CC(c1cnc(-c2cncc(N3CCCC3)n2)s1)n1ccc(N2CCC[C@@H](NCC3CC3)C2)cc1=O (stereo partly drawn) [Compound 233, 4-((R)-3-((cyclopropylmethyl)amino)piperidin-1-yl)-1-(1-(2-(6-(pyrrolidin-1-yl)pyrazin-2-yl)thiazol-5-yl)ethyl)pyridin-2(1H)-one] | ≥ 6.30 | ≥ 6.30
22 | ≥ 7.30 | Cn1c(N2CCCC2)cc(NC(=O)C2(c3ccc(N4CCC[C@@H](NCC5CCC5)C4)cn3)COC2)cc1=O [Compound 310, (R)-3-(5-(3-((cyclobutylmethyl)amino)piperidin-1-yl)pyridin-2-yl)-N-(1-methyl-2-oxo-6-(pyrrolidin-1-yl)-1,2-dihydropyridin-4-yl)oxetane-3-carboxamide] | ≥ 6.30 | 5.30 to 6.30
23 | ≥ 7.30 | CC(c1cnc(-c2cncc(N3CCCC3)n2)o1)n1ccc(N2CCC[C@@H](NCC3CC3)C2)cc1=O (single isomer, unassigned) [Compound 242] | ≥ 6.30 | ≥ 6.30
24 | ≥ 7.30 | CC(c1ccc(N2CCC[C@@H](NCC3CCC3)C2)cn1)n1cc(-c2cncc(N3CC4CC4C3)n2)nn1 (single isomer, unassigned) [Compound 286] | ≥ 6.30 | ≥ 6.30
